Key:
anaerobic bacteria = settings: Non Patent Literature 2; cited from earlier work
[1] = test system: genus Parvimonas P. micra; experiment: Microbiological efficacy according to the causative bacteria (Lung suppuration/lung abscess); format: in vivo; settings: case number 2
Experimental: (§1) The investigational new drug A was administered intravenously for 7 to 14 days to 11 subjects suspected of having lung suppuration or lung abscess meeting the following criteria.
(§2) On the first day of the start of administration, two doses of investigational new drug A (300 mg/day) were used, and on the second day of administration, one dose of investigational new drug A (150 mg/day) was used, and then the same dose (150 mg/day) was maintained. The administration of the injection was performed intravenously over about 1 hour per dose.
(§3) Samples for microbiological evaluation were collected before starting an appropriate alternative antibacterial treatment.
(§4) Table 4 and Table 5 show the microbiological efficacy of Test Examples 1 and 2 according to the causative bacteria.

Anaerobe [2] = experiment: as above; format: in vivo
Experimental: as §1, §2, §3, §4

[3] = test system: subjects suspected of having lung suppuration or lung abscess; experiment: Test Example 2: clinical efficacy in lung suppuration or lung abscess; format: in vivo, human
Experimental: as §1
On chest X-rays or CT images taken within 48 hours before the start of administration at the age of 16 years or older, a massive shadow or a shadow with cavities inside (nodular shadow, mass shadow) is observed. Regardless of the presence of a niveau due to pus accumulation.
The patient presents with symptoms and inflammation that are characteristic of lung suppuration or lung abscess.
as §2
(§5) The clinical efficacy of Test Examples 1 and 2 were determined by setting the following criteria, based on the criteria for clinical efficacy of pneumonia described in Clinical evaluation method of new antibacterial drugs in respiratory infections (2nd edition), Japanese Journal of Chemotherapy. 2012; 60(1): 30-45. 9). The primary endpoint was the efficacy rate at the end of administration or discontinuation of investigational new drug A.
(§6) The end of administration herein means the evaluation date on the day after the administration of the investigational new drug A is completed. Moreover, the time of discontinuation means the date on which the evaluation was performed within 3 days from the last administration date or the discontinuation judgment date of the investigational new drug A. Furthermore, “the end of administration or the time of discontinuation” is expressed as End of Treatment (EOT). In addition, CRP is an abbreviation for C-reactive protein, and is one of the acute phase reactants produced in a short time in response to various inflammations. It is a useful index for the observation of therapeutic effects since it increases in a few hours in bacterial infections such as pneumonia and decreases rapidly as the inflammation subsides.
(§7) “Early therapeutic effect” was defined as a case in which significant improvement is observed 3 days after administration (regardless of whether administration was completed or continued after 4 days).
as §3
(§8) In addition, if the discontinuation date is the start date of administration (day 0) or the second day of administration (day 1), the determination of early drug efficacy was regarded as unnecessary. In the case of the third day of administration (day 2) or later, it was determined using the test results at the time of discontinuation.
(§9) When the treatment was discontinued after the next day after the end of the administration, the clinical efficacy at the end of the administration was determined, and the determination of the clinical efficacy at the time of discontinuation was not required. In addition, it was judged as “Ineffective” when the treatment was discontinued or when it was changed to an alternative antibacterial treatment after the end of administration of the investigational new drug. […] When changing to an alternative antibacterial treatment, in principle, prescribed tests, examinations and judgments at the end of treatment were made before the change.
(§10) The efficacy rate is the value obtained by the following formula.
(§11) Efficacy rate=(number of subjects rated as “Effective”[…]number of subjects rated as “Effective” or “Ineffective”)×100(%)

[4] = test system: subjects suspected of having aspiration pneumonia; experiment: Test Example 1: clinical efficacy in aspiration pneumonia; format: in vivo, human
Experimental: (§12) The investigational new drug A was administered intravenously for 7 to 14 days to 13 subjects suspected of having aspiration pneumonia meeting the following criteria.
A clear infiltrative shadow appearing acutely on chest X-rays or CT images taken within 48 hours before the start of administration at the age of 16 years or older, is observed.
Confirmation of clear aspiration, choking or dysphagia, has a disease or history of disease with potential dysphagia.
as §2, with “The patient presents with symptoms and inflammation that are characteristic of aspiration pneumonia. On” for “On”
as §5, §6, §7, §3, §8, §9, §10, §11

[5] = test system: genus Bacteroides Bacteroides sp.; experiment: Microbiological efficacy according to the causative bacteria (Aspiration pneumonia); format: in vivo; settings: case number 2
Experimental: as §12
as §2, with “The patient presents with symptoms and inflammation that are characteristic of aspiration pneumonia. On” for “On”
as §3

[6] = test system: genus Actinomyces A. odontolyticus; experiment: as above; format: in vivo; settings: case number 1
Experimental: as §12
as §2, with “The patient presents with symptoms and inflammation that are characteristic of aspiration pneumonia. On” for “On”
as §3

[7] = test system: genus Prevotella P. intermedia; experiment: as above; format: in vivo; settings: case number 1
Experimental: as §12
as §2, with “The patient presents with symptoms and inflammation that are characteristic of aspiration pneumonia. On” for “On”
as §3

[8] = test system: genus Veillonella Veillonella sp.; experiment: as above; format: in vivo; settings: case number 7
Experimental: as §12
as §2, with “The patient presents with symptoms and inflammation that are characteristic of aspiration pneumonia. On” for “On”
as §3

[9] = test system: genus Prevotella P. buccae; experiment: as above; format: in vivo; settings: case number 1
Experimental: as §12
as §2, with “The patient presents with symptoms and inflammation that are characteristic of aspiration pneumonia. On” for “On”
as §3

[10] = test system: genus Prevotella Prevotella sp.; experiment: as above; format: in vivo; settings: case number 6
Experimental: as §12
as §2, with “The patient presents with symptoms and inflammation that are characteristic of aspiration pneumonia. On” for “On”
as §3

[11] = test system: genus Parvimonas P. micra; experiment: as above; format: in vivo; settings: case number 1
Experimental: as §12
as §2, with “The patient presents with symptoms and inflammation that are characteristic of aspiration pneumonia. On” for “On”
as §3, §4

Anaerobe [12] = experiment: as above; format: in vivo
Experimental: as §12
as §2, with “The patient presents with symptoms and inflammation that are characteristic of aspiration pneumonia. On” for “On”
as §3, §4

[13] = test system: genus Fusobacterium F. necrophorum; experiment: Microbiological efficacy according to the causative bacteria (Lung suppuration/lung abscess); format: in vivo; settings: case number 1
Experimental: as §1, §2, §3

[14] = test system: genus Fusobacterium F. nucleatum; experiment: as above; format: in vivo; settings: case number 4
Experimental: as §1, §2, §3

[15] = test system: genus Leptotrichia Leptotrichia buccalis; experiment: as above; format: in vivo; settings: case number 1
Experimental: as §1, §2, §3

[16] = test system: genus Porphyromonas P. gingivalis; experiment: as above; format: in vivo; settings: case number 1
Experimental: as §1, §2, §3

[17] = test system: genus Prevotella P. oralis; experiment: as above; format: in vivo; settings: case number 1
Experimental: as §1, §2, §3

[18] = test system: genus Prevotella P. melaninogenica; experiment: as above; format: in vivo; settings: case number 1
Experimental: as §1, §2, §3

[19] = test system: genus Prevotella P. intermedia; experiment: as above; format: in vivo; settings: case number 1
Experimental: as §1, §2, §3

[20] = test system: genus Veillonella Veillonella sp.; experiment: as above; format: in vivo; settings: case number 2
Experimental: as §1, §2, §3

[21] = test system: genus Bacteroide B. fragilis; experiment: as above; format: in vivo; settings: case number 1
Experimental: as §1, §2, §3

[22] = test system: genus Prevotella Prevotella sp.; experiment: as above; format: in vivo; settings: case number 1
Experimental: as §1, §2, §3

[23] = lung suppuration/lung abscess, Anaerobe total, case number 16
[24] = Test Example 2, lung suppuration or lung abscess, 3 days after administration, number of subjects
[25] = Test Example 2, lung suppuration or lung abscess, EOT, number of subjects
[26] = conclusion from Table 2 and Table 3
[27] = Test Example 1, aspiration pneumonia, 3 days after administration, number of subjects
[28] = Test Example 1, aspiration pneumonia, EOT, number of subjects
[29] = aspiration pneumonia, Anaerobe total, case number 19

O=C(O)c1cn(C2CC2)c2cc(N3CCNCC3)c(F)cc2c1=O [ciprofloxacin]
antibacterial activity against anaerobic bacteria (in words) (anaerobic bacteria): insufficient antibacterial activity

COc1c(N2C[C@H](CNC3CC3)[C@H](F)C2)c(F)cc2c(=O)c(C(=O)O)cn(CCF)c12 [investigational new drug A, 7-[(3S,4S)-3-{(cyclopropylamino)methyl}-4-fluoropyrrolidin-1-yl]-6-fluoro-1-(2-fluoroethyl)-8-methoxy-4-oxo-1,4-dihydroquinoline-3-carboxylic acid]
Result: Eradicated [1]: 2 | Result: Persisted [1]: 0 | antibacterial effect on the causative bacteria of lung suppuration or lung abscess (in words) (Anaerobe [2]; conclusion from Table 5): high antibacterial effect | Result: Eradicated (Anaerobe [2]; [23]): 15 | Result: Persisted (Anaerobe [2]; [23]): 1 | Early drug efficacy evaluation, Clinical efficacy: Effective ([3]; Test Example 2, lung suppuration or lung abscess, 11 subjects, i.v. 300 mg day 1 then 150 mg/day, 3 days after administration, number of subjects): 9 | Early drug efficacy evaluation: Efficacy rate ([3]; Test Example 2, lung suppuration or lung abscess, 3 days after administration): 82% | Early drug efficacy evaluation, Clinical efficacy: Ineffective [3, 24]: 2 | Early drug efficacy evaluation, Clinical efficacy: Undeterminable [3, 24]: 0 | End of Treatment: Efficacy rate ([3]; Test Example 2, lung suppuration or lung abscess, EOT): 91% | End of Treatment: Efficacy rate ([3]; Test Example 2, lung suppuration or lung abscess, EOT, listed as 7-[(3S,4S)-3-{(cyclopropylamino)methyl}-4-fluoropyrrolidin-1-yl]-6-fluoro-1-(2-f)): 91% | End of Treatment, Clinical efficacy: Effective [3, 25]: 10 | End of Treatment, Clinical efficacy: Ineffective [3, 25]: 1 | End of Treatment, Clinical efficacy: Undeterminable [3, 25]: 0 | therapeutic effect on lung suppuration or lung abscess (in words) [3, 26]: high therapeutic effect | Early drug efficacy evaluation, Clinical efficacy: Effective ([4]; Test Example 1, aspiration pneumonia, 13 subjects, i.v. 300 mg day 1 then 150 mg/day, 3 days after administration, number of subjects): 12 | Early drug efficacy evaluation: Efficacy rate ([4]; Test Example 1, aspiration pneumonia, 3 days after administration): 92% | Early drug efficacy evaluation, Clinical efficacy: Ineffective [4, 27]: 1 | Early drug efficacy evaluation, Clinical efficacy: Undeterminable [4, 27]: 0 | End of Treatment: Efficacy rate ([4]; Test Example 1, aspiration pneumonia, EOT): 100% | End of Treatment: Efficacy rate ([4]; Test Example 1, aspiration pneumonia, EOT, listed as 7-[(3S,4S)-3-{(cyclopropylamino)methyl}-4-fluoropyrrolidin-1-yl]-6-fluoro-1-(2-f)): 100% | End of Treatment, Clinical efficacy: Ineffective [4, 28]: 0 | End of Treatment, Clinical efficacy: Undeterminable [4, 28]: 1 | End of Treatment, Clinical efficacy: Effective ([4]; Test Example 1, aspiration pneumonia, end of administration or discontinuation (EOT), number of subjects): 12 | therapeutic effect on aspiration pneumonia (in words) [4, 26]: high therapeutic effect | Result: Eradicated [5]: 2 | Result: Persisted [5]: 0 | Result: Eradicated [6]: 1 | Result: Persisted [6]: 0 | Result: Eradicated [7]: 1 | Result: Persisted [7]: 0 | Result: Eradicated [8]: 5 | Result: Persisted [8]: 2 | Result: Eradicated [9]: 1 | Result: Persisted [9]: 0 | Result: Eradicated [10]: 6 | Result: Persisted [10]: 0 | Result: Eradicated [11]: 1 | Result: Persisted [11]: 0 | Result: Eradicated (Anaerobe [12]; [29]): 17 | Result: Persisted (Anaerobe [12]; [29]): 2 | antibacterial effect on the causative bacteria of aspiration pneumonia (in words) (Anaerobe [12]; conclusion from Table 4): high antibacterial effect | Result: Eradicated [13]: 1 | Result: Persisted [13]: 0 | Result: Eradicated [14]: 4 | Result: Persisted [14]: 0 | Result: Eradicated [15]: 1 | Result: Persisted [15]: 0 | Result: Eradicated [16]: 1 | Result: Persisted [16]: 0 | Result: Eradicated [17]: 1 | Result: Persisted [17]: 0 | Result: Eradicated [18]: 1 | Result: Persisted [18]: 0 | Result: Eradicated [19]: 0 | Result: Persisted [19]: 1 | Result: Eradicated [20]: 2 | Result: Persisted [20]: 0 | Result: Eradicated [21]: 1 | Result: Persisted [21]: 0 | Result: Eradicated [22]: 1 | Result: Persisted [22]: 0

C[C@H]1COc2c(C3(N)CC3)c(F)cc3c(=O)c(C(=O)O)cn1c23 [pazufloxacin]
antibacterial activity against anaerobic bacteria (in words) (anaerobic bacteria): insufficient antibacterial activity

— patent publication US20210137913A1, “THERAPEUTIC AGENT FOR ASPIRATION PNEUMONIA, LUNG SUPPURATION, OR LUNG ABSCESS” (KYORIN PHARMACEUTICAL CO., LTD., priority 2017, published 2021)
